Assay results taken from patent US20090281054A1, “COMPOSITIONS AND METHODS COMPRISING CAPURAMYCIN ANALOGUES” (priority 2008, published 2009).
≈ marks a conversion by molar mass, not a printed value. Where two headings read alike, the source gives them in different places.

What was measured:
translocase I = translocase I (Escherichia coli, UniProt P0A6W3); test: IC50 against translocase I; format: biochemical
[1] = test system: Mycobacterium tuberculosis (MTB); test: MIC by BACTEC radiometric method; format: cell-based; details: for MIC90: MTB
Experimental: Determination of MIC. MIC of drugs for laboratory and clinical strains of Mycobacterium tuberculosis (MTB) was determined by BACTEC radiometric method as described by Heifets (1991), “Antituberculosis Drugs: Antimicrobial Activity in vitro, Drug Susceptibility in the Chemotherapy of Microbacterial Infections, Boca Raton, Fla., CRC Press and Luna-Herrera et al., Antimicrob. Agents and Chemother. 1995, 39(2), 440-444. […] The minimal inhibitory concentration (MIC) was defined as the lowest concentrations of drug that caused GI equal to or less than that of the 1/100 dilution growth control. Capuramycin analogues SQ641, SQ922 and SQ997 were tested at concentrations ranging from […].

[2] = test system: M. smegmatis (MSMG; MC2155); test: MIC by microdilution method in 7H9 broth; format: cell-based; details: MSMG MC^2155, 72 hr
[3] = test system: M. abscessus (MAB; ATCC 700869); test: MIC by microdilution method in 7H9 broth; format: cell-based; details: Mycobacteroides abscessus, ATCC700869; MAB 700869; read-out: MIC
[4] = test system: M. kansaii (MKN; ATCC12478 & 35775); test: MIC by microdilution method in 7H9 broth; format: cell-based, M. kansasii; details: Mycobacterium kansasii, read-out: MIC
M. avium complex (MAC) = test: MIC by microdilution method in 7H9 broth; format: cell-based; details: Mycobacterium avium; for MIC90: value in square brackets, read-out: MIC90
MSMG and MTB (H37Rv) = test: Minimum bactericidal concentration (MBC), MBC/MIC ratio; format: cell-based, Mycobacterium tuberculosis; M. smegmatis
MTB cultures = test: Induction of morphological changes and bacterial disintegration; format: cell-based, Mycobacterium tuberculosis; details: for Turbidity of MTB cultures: within 2 days of exposure
Text: Induction of morphological changes and bacterial disintegration. […] Tubercle bacilli exposed to CM analogues were typically club-shaped, with deeply stained swollen ends (see Reddy et al. Antimicrob. Agents Chemother., 2008, 52(2), 719-721).

MTB inside macrophages = test: Intracellular activity of DMSO-solubilized drug in MTB infected macrophages; format: cell-based, Mycobacterium tuberculosis; details: for Mean RLU at Day 7: Day 0 RLU 443, Control Day 7 4251
MTB = test: In vivo efficacy in mouse model of chronic TB disease (lung CFU); details: mice treated for 3 wk, starting 3 wk after infection, gav, ip, iv
Experimental: In vivo activity against MTB. In vivo efficacy of CM analogues was investigated in a mouse model of chronic TB disease (FIG. 2). Three wk after infection, mice were treated for 3 wk with the drugs by gavage (gav), intraperitoneal injection (ip), intravenous injection (iv), or intranasal (in) routes. Efficacy was analyzed by determining Colony-Forming Units (CFU) in lungs. […] Each achieved a decrease of 1-log10 lung CFU compared to the late control [LC] CFU by at least one route, which varied for each drug.

in vitro = format: cell-based; details: mouse
Experimental: (§1) The SQ997 amino acid derivatives shown in Table 2 were tested for in vitro activity against MTB, cytotoxicity for uninfected J774 cells to determine IC50, and for intracellular activity in the macrophage assay (Table 15). […] Cell viability remained similar to SQ997, or slightly better as cell morphologic changes were reduced.

MTB H37Rv = test: MIC by broth microdilution; format: cell-based; details: Mycobacterium tuberculosis
Experimental: as §1

[5] = Mycolicibacterium smegmatis, MC2155|MC^2155, read-out: MIC
[6] = ATCC 12478 / ATCC 35775, MKN ATCC35775
[7] = MAC strain NIH C1-1, read-out: MIC
[8] = MAC strain NIH C1-2, read-out: MIC
[9] = MAC strain NIH C1-3, read-out: MIC
[10] = MAC strain NIH C1-4, read-out: MIC

translocase I, sequence (P0A6W3 whole entry): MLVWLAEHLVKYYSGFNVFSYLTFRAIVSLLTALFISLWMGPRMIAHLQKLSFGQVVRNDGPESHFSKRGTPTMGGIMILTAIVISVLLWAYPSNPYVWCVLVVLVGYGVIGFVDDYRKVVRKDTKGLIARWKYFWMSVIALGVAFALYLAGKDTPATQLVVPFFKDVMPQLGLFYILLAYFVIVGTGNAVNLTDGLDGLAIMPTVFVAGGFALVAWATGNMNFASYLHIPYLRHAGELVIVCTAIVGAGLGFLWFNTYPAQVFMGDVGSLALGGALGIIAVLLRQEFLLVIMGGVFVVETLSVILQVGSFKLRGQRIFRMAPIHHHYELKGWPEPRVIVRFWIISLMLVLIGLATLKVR

## CO[C@H]1[C@@H](O)[C@H](n2ccc(=O)[nH]c2=O)O[C@@H]1[C@@H](O[C@H]1OC(C(=O)Nc2ccc(F)c(F)c2)=C[C@H](O)[C@@H]1O)C(N)=O [SQ922]
Translocase I
  IC50 against translocase I: 0.009 µg/mL (≈ 0.0158 µM)
[1]; H37RV, MTB strain H37Rv
  MIC: 2 µg/mL (≈ 3.51 µM)
[1]
  MIC90: 8 µg/mL (≈ 14 µM)
[1]; MTB strain 16
  MIC: 8 µg/mL (≈ 14 µM)
[1]; MTB strain 113
  MIC: 2 µg/mL (≈ 3.51 µM)
[1]; MTB strain 158
  MIC: 2 µg/mL (≈ 3.51 µM)
[1]; MTB strain 606
  MIC: 4 µg/mL (≈ 7.01 µM)
[1]; MTB strain 847
  MIC: 4 µg/mL (≈ 7.01 µM)
[1]; MTB strain 1351
  MIC: 2 µg/mL (≈ 3.51 µM)
[1]; MTB strain 1407
  MIC: 2 µg/mL (≈ 3.51 µM)
[1]; MTB strain 1498
  MIC: 4 µg/mL (≈ 7.01 µM)
[1]; MTB strain 1665
  MIC: 4 µg/mL (≈ 7.01 µM)
[1]; MTB strain 1703
  MIC: 8 µg/mL (≈ 14 µM)
[1]; MTB strain 1760
  MIC: 8 µg/mL (≈ 14 µM)
[1]; MTB strain 1782
  MIC: 8 µg/mL (≈ 14 µM)
[1]; MTB strain 1901
  MIC: 4 µg/mL (≈ 7.01 µM)
[1]; MTB strain 1921
  MIC: 4 µg/mL (≈ 7.01 µM)
[1]; MTB strain 2224
  MIC: 4 µg/mL (≈ 7.01 µM)
[1]; MTB strain 2554
  MIC: 4 µg/mL (≈ 7.01 µM)
[1]; MTB strain 2693
  MIC: 4 µg/mL (≈ 7.01 µM)
[1]; MTB strain 8266
  MIC: 2 µg/mL (≈ 3.51 µM)
[1]; MTB strain 8642
  MIC: 2 µg/mL (≈ 3.51 µM)
[2]
  MIC: 2 µg/mL (≈ 3.51 µM)
[2]; [5]
  MIC: 2 µg/mL (≈ 3.51 µM)
[3]
  MIC: 16 µg/mL (≈ 28 µM)
[4]; [6]
  MIC: 1 µg/mL (≈ 1.75 µM)
[4]; MKN ATCC12478
  MIC: 16 µg/mL (≈ 28 µM)
M. avium complex (MAC); MAC strain 100, read-out: MIC
  MIC: 4 µg/mL (≈ 7.01 µM)
M. avium complex (MAC); MAC strain 101, read-out: MIC
  MIC: 1 µg/mL (≈ 1.75 µM)
M. avium complex (MAC); MAC strain 104, read-out: MIC
  MIC: 4 µg/mL (≈ 7.01 µM)
M. avium complex (MAC); MAC strain 109, read-out: MIC
  MIC: 0.5 µg/mL (≈ 0.876 µM)
M. avium complex (MAC); MAC strain A5, read-out: MIC
  MIC: 2 µg/mL (≈ 3.51 µM)
M. avium complex (MAC); MAC strain JSH1, read-out: MIC
  MIC: 16 µg/mL (≈ 28 µM)
M. avium complex (MAC); [7]
  MIC: > 32 µg/mL
M. avium complex (MAC); [8]
  MIC: 1 µg/mL (≈ 1.75 µM)
M. avium complex (MAC); [9]
  MIC: 8 µg/mL (≈ 14 µM)
M. avium complex (MAC); [10]
  MIC: 2 µg/mL (≈ 3.51 µM)
M. avium complex (MAC); MAC isolates
  MIC90: 16 µg/mL (≈ 28 µM)
MSMG and MTB (H37Rv)
  MBC/MIC ratio: 1
MTB cultures
  Bacterial disintegration / clearance of MTB cultures: rapid bacterial disintegration
  Turbidity of MTB cultures: marked fall in the turbidity
MTB inside macrophages; 2 μg/ml
  Mean RLU at Day 7: 1164 RLU
MTB inside macrophages; 4 μg/ml
  Mean RLU at Day 7: 1080 RLU
MTB inside macrophages; 8 μg/ml
  Mean RLU at Day 7: 1111 RLU
MTB inside macrophages; 16 μg/ml
  Mean RLU at Day 7: 496 RLU
MTB inside macrophages; 32 μg/ml
  Mean RLU at Day 7: 311 RLU
MTB inside macrophages; 64 μg/ml
  Mean RLU at Day 7: 134 RLU
MTB inside macrophages; 1× and 2× MIC
  Intracellular activity (FIG. 1): showed intracellular activities
MTB
  Routes by which replication of MTB in lungs was prevented (vs early control): most routes
4-day IV injections at 500 mg/kg/day
  Toxicity: No toxicity

## CO[C@H]1[C@@H](O)[C@H](n2ccc(=O)[nH]c2=O)O[C@@H]1[C@@H](O[C@H]1OC(C(=O)N[C@H]2CCC[C@@H](C)NC2=O)=C[C@H](O)[C@@H]1O)C(N)=O [SQ997]
Translocase I
  IC50 against translocase I: 0.01 µg/mL (≈ 0.0171 µM)
[1]; H37RV, MTB strain H37Rv
  MIC: 8 µg/mL (≈ 13.7 µM)
[1]
  MIC90: 16 µg/mL (≈ 27.4 µM)
[1]; MTB strain 16
  MIC: 16 µg/mL (≈ 27.4 µM)
[1]; MTB strain 113
  MIC: 16 µg/mL (≈ 27.4 µM)
[1]; MTB strain 158
  MIC: 8 µg/mL (≈ 13.7 µM)
[1]; MTB strain 606
  MIC: 16 µg/mL (≈ 27.4 µM)
[1]; MTB strain 847
  MIC: 16 µg/mL (≈ 27.4 µM)
[1]; MTB strain 1351
  MIC: 16 µg/mL (≈ 27.4 µM)
[1]; MTB strain 1407
  MIC: 16 µg/mL (≈ 27.4 µM)
[1]; MTB strain 1498
  MIC: 16 µg/mL (≈ 27.4 µM)
[1]; MTB strain 1665
  MIC: 16 µg/mL (≈ 27.4 µM)
[1]; MTB strain 1703
  MIC: 16 µg/mL (≈ 27.4 µM)
[1]; MTB strain 1760
  MIC: > 16 µg/mL
[1]; MTB strain 1782
  MIC: > 16 µg/mL
[1]; MTB strain 1901
  MIC: 16 µg/mL (≈ 27.4 µM)
[1]; MTB strain 1921
  MIC: 16 µg/mL (≈ 27.4 µM)
[1]; MTB strain 2224
  MIC: 16 µg/mL (≈ 27.4 µM)
[1]; MTB strain 2554
  MIC: 16 µg/mL (≈ 27.4 µM)
[1]; MTB strain 2693
  MIC: 16 µg/mL (≈ 27.4 µM)
[1]; MTB strain 8266
  MIC: 8 µg/mL (≈ 13.7 µM)
[1]; MTB strain 8642
  MIC: 16 µg/mL (≈ 27.4 µM)
[2]
  MIC: 8 µg/mL (≈ 13.7 µM)
[2]; [5]
  MIC: 8 µg/mL (≈ 13.7 µM)
[3]
  MIC: 16 µg/mL (≈ 27.4 µM)
[4]; [6]
  MIC: 4 µg/mL (≈ 6.85 µM)
[4]; MKN ATCC12478
  MIC: 16 µg/mL (≈ 27.4 µM)
M. avium complex (MAC); 336 h, MAC isolates, 2 wk, read-out: MIC (range)
  MIC: 4 to 32 µg/mL (≈ 6.85 to 54.8 µM)
M. avium complex (MAC); MAC strain 100, read-out: MIC
  MIC: 16 µg/mL (≈ 27.4 µM)
M. avium complex (MAC); MAC strain 101, read-out: MIC
  MIC: 8 µg/mL (≈ 13.7 µM)
M. avium complex (MAC); MAC strain 104, read-out: MIC
  MIC: 16 µg/mL (≈ 27.4 µM)
M. avium complex (MAC); MAC strain 109, read-out: MIC
  MIC: 8 µg/mL (≈ 13.7 µM)
M. avium complex (MAC); MAC strain A5, read-out: MIC
  MIC: 16 µg/mL (≈ 27.4 µM)
M. avium complex (MAC); MAC strain JSH1, read-out: MIC
  MIC: 32 µg/mL (≈ 54.8 µM)
M. avium complex (MAC); [7]
  MIC: 8 µg/mL (≈ 13.7 µM)
M. avium complex (MAC); [8]
  MIC: 4 µg/mL (≈ 6.85 µM)
M. avium complex (MAC); [9]
  MIC: 16 µg/mL (≈ 27.4 µM)
M. avium complex (MAC); [10]
  MIC: 8 µg/mL (≈ 13.7 µM)
M. avium complex (MAC); MAC isolates
  MIC90: 16 µg/mL (≈ 27.4 µM)
MSMG and MTB (H37Rv)
  MBC/MIC ratio: 1
MTB cultures
  Bacterial disintegration / clearance of MTB cultures: rapid bacterial disintegration
  Turbidity of MTB cultures: marked fall in the turbidity
In vitro
  IC50: > 32 µg/mL
MTB H37Rv
  MIC: 8 µg/mL (≈ 13.7 µM)
MTB
  Routes by which replication of MTB in lungs was prevented (vs early control): gav and iv
4-day IV injections at 1000 mg/kg/day
  Toxicity: No toxicity
